PMC11219871, “Epigenetic-based differentiation therapy for Acute Myeloid Leukemia” (Nature Communications, 2024)
Values joined by “and” are separate entries in the source; they are usually repeats but may differ in a detail not shown here. Equal entries are not always repeated.

Assays:
Rag2-/-γc-/- mice = assay: Toxicity assay: hematological and liver parameters, liver histology; type: in vivo, mouse; details: for ALT (Counts (U/L)) / AST (Counts (U/L)) / Bilirubin (Counts (mg/dl)) / HDL (Counts (mmol/l)) / LCLC3 (Counts (mmol/l)) / UREA (Counts (mg/dl)) / Hematocrit (Counts (%)) / Hemoglobin (Counts (g/dl)) / PLT (Counts (K/O)) / RBC (Counts (K/O)) / WBC (Counts (K/O)): healthy Rag2-/-γc-/- mice, individual mice, 10 mg/kg; for ALT (Counts (U/L)) / AST (Counts (U/L)) / Bilirubin (Counts (mg/dl)) / HDL (Counts (mmol/l)) / LCLC3 (Counts (mmol/l)) / UREA (Counts (mg/dl)): 10 mg/kg i.p. daily for 3 weeks then 7-day washout; for Hematocrit (Counts (%)) / Hemoglobin (Counts (g/dl)) / PLT (Counts (K/O)) / RBC (Counts (K/O)) / WBC (Counts (K/O)): 10 mg/kg i.p. daily for 3 weeks
Protocol: After treating Rag2^−/−γc^−/− mice with i.p. […] Hematological and liver parameters were measured.
Hematological parameters, including white blood cells, red blood cells, platelet count, hemoglobin and hematocrit, were measured on a Hemavet Hematology Analyzer (Drew Scientific). Liver enzymes (albumin, alkaline phosphatase, aspartate transaminase, alanine transaminase), cholesterol, bilirubin, urea and bile acid levels were analyzed from mice serum using a C311 Cobas Analyzer (Roche Diagnostics).
Mice livers were fixed in paraformaldehyde at 4% for 6–8 h, washed twice with saline solution and stored in 70% ethanol. Samples were included in paraffin, and 3-µm serial sections were cut, deparaffinated, and stained with hematoxylin–eosin.

HDAC2 = HDAC2 (Homo sapiens, UniProt Q92769); assay: HDAC enzymatic assay, fluorescence-labeled substrate; type: biochemical
HL-60 = assay: CUT&RUN of BRD4, H3K27Ac and H3K9Ac; type: cell-based, human; details: HL-60, 12 h
Protocol: CUT&RUN was performed with the kit CUTANA ChIC/CUT&RUN (Epicypher, 14-1048) following the manufacturer’s instructions. Briefly, 0.5 million of HL-60 cells were harvested and resuspended in 100ul wash buffer [20 mM HEPES pH 7.5, 150 mM NaCl, 0.5 mM Spermidine, supplemented with Protease Inhibitor EDTA-Free tablet (Roche 11836170001)]. Activated Concanavalin A was incubated with cells at room temperature for 10 min to let the cells bind to the beads. For each target protein factor, 0.5 μg of BRD4 CUTANA CUT&RUN antibody (Cat No 13-2003, Epicypher), Acetyl-Histone H3 (Lys 9) (C5B11) rabbit monoclonal antibody diluted 1:50 (Cat No 9649 T, Cell Signaling) or Acetyl-Histone H3 (Lys 27) (D5E4) XP rabbit monoclonal antibody diluted 1:100 (Cat No 8173T, Cell Signaling) was added to each sample and incubated in the antibody buffer (wash buffer +0.01% Digitonin and 2 mM EDTA) overnight at 4 °C. Isotype control IgG was used as a negative control. The beads were then washed twice with digitonin buffer [wash buffer +0.01% Digitonin] and 2.5 μL pAG-MNase was added to each sample. After ten minutes of incubation at room temperature, excessive pAG-MNase was washed out by a two-time digitonin buffer wash. Then targeted chromatin was digested and released from cells by 2 h of incubation with the presence of 2 mM CaCl2 at 4 °C. After incubation with stop buffer [340 mM NaCl, 20 mM EDTA, 4 mM EGTA, 50 μg/mL RNase A, 50 μg/mL Glycogen] for 10 min at 37 °C the supernatant containing CUT&RUN-enriched DNA was purified using the CUTANA DNA Purification kit (Epicypher). Finally, Illumina sequencing libraries were prepared from 6 ng of purified CUT&RUN DNA using NEBNext UltraTM II DNA Library Prep Kit for Illumina, following the manufacturer’s instructions. For BRD4, some modifications were added following the protocol of Nan Liu (Harvard University; 10.17504/protocols.io.wvgfe3w). Libraries were sequenced using NEXTseq500 (Illumina).
The Cut&Run samples were analyzed using the CUT&RUN tools pipeline with default settings and no filtering for 120 bp fragments. Peak calling was performed on deduplicated reads with macs2 version 2.2.6 using the respective IgG samples as control, narrow peak calling and paired-end settings, and a threshold of q = 0.01.
Specifically, 12 chromatin states, based on the combination of 6 histone marks, for 38 AML samples were used[59]. The vast majority of the regions could be entirely annotated to a single chromatin state while some could be entirely annotated to a single chromatin state after the replacement of consecutive chromatin states with similar characteristics with one of them (i.e combination of Transcription Transition / Transcription Elongation / Weak Transcription to Transcription Transition or combination of Heterochromatin; Represesed/ Heterochromatin; Low Signal to Heterochromatin; Repressed etc). The regions that couldn’t be entirely annotated to a single chromatin state or simplified chromatin state were removed. […] We then calculated the percentage of each chromatin state taking into account the width of the regions. As background, we used all the regions of each AML sample and we calculated the percentage of the chromatin states similarly. Finally, we calculated the fold change of each chromatin state as a percentage in the sample to a percentage in the background AML sample.

HDAC2, sequence (Q92769 whole entry): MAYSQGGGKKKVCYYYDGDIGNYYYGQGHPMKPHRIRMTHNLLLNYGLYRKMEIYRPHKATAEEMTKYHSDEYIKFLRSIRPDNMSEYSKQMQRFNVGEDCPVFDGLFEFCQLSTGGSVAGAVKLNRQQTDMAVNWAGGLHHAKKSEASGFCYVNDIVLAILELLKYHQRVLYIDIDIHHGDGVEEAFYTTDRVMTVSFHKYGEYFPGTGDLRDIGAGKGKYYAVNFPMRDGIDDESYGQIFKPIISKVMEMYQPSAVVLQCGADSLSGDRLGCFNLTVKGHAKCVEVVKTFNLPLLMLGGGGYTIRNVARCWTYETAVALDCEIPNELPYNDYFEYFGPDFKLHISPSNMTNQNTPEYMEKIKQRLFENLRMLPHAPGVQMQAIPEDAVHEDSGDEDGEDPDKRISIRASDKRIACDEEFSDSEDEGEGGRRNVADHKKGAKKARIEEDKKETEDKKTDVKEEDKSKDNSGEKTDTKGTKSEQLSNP

COc1cc2nc(-c3cc(C)oc3C)cc(NCC3CCN(c4ncc(C(=O)NO)cn4)CC3)c2cc1OC [CM-1758, 2-[4-[[[2-(2,5-dimethyl-3-furyl)-6,7-dimethoxy-4-quinolyl]amino]methyl] -1-piperidyl]pyrimidine-5-carbohydroxamic acid]
tolerability (Rag2-/-γc-/- mice; 10 mg/kg i.p. daily over 3 weeks, 1-week washout, Rag2-/-γc-/- mice): well tolerated | ALT (Counts (U/L)) (Rag2-/-γc-/- mice; Week 3): 17 U/L and 4.5 U/L and 5.5 U/L and 9 U/L | AST (Counts (U/L)) (Rag2-/-γc-/- mice; Week 3): 148.5 U/L and 43 U/L and 38.5 U/L and 74 U/L | Bilirubin (Counts (mg/dl)) (Rag2-/-γc-/- mice; Week 3): 0 mg/dl (2×) and 0.05 mg/dl (2×) | HDL (Counts (mmol/l)) (Rag2-/-γc-/- mice; Week 3): 3.2 mmol/L and 2.05 mmol/L and 0.6 mmol/L and 2.55 mmol/L | LCLC3 (Counts (mmol/l)) (Rag2-/-γc-/- mice; Week 3): 0.2 mmol/l (2×) and 0.1 mmol/l (2×) | UREA (Counts (mg/dl)) (Rag2-/-γc-/- mice; Week 3): 20.7 mg/dL and 26.4 mg/dL and 33.1 mg/dL and 24.1 mg/dL | ALT (Counts (U/L)) (Rag2-/-γc-/- mice; Week 4): 14.1 U/L and 27 U/L and 21.9 U/L and 7.5 U/L | AST (Counts (U/L)) (Rag2-/-γc-/- mice; Week 4): 46.8 U/L and 244.8 U/L and 155.7 U/L and 62.1 U/L | Bilirubin (Counts (mg/dl)) (Rag2-/-γc-/- mice; Week 4): 0 mg/dL and 0.06 mg/dL and 0.12 mg/dL and 0.03 mg/dL | HDL (Counts (mmol/l)) (Rag2-/-γc-/- mice; Week 4): 2.61 mmol/L and 2.43 mmol/L and 2.31 mmol/L and 2.37 mmol/L | LCLC3 (Counts (mmol/l)) (Rag2-/-γc-/- mice; Week 4): 0.21 mmol/l (3×) and 0.27 mmol/l | UREA (Counts (mg/dl)) (Rag2-/-γc-/- mice; Week 4): 26.61 mg/dl and 26.58 mg/dl (2×) and 31.89 mg/dl | Hematocrit (Counts (%)) (Rag2-/-γc-/- mice; 7d Washout): 51% and 54.2% and 45.9% and 52.8% | Hemoglobin (Counts (g/dl)) (Rag2-/-γc-/- mice; 7d Washout): 17.7 g/dL and 17.6 g/dL and 16.1 g/dL and 17.4 g/dL | PLT (Counts (K/O)) (Rag2-/-γc-/- mice; 7d Washout): 1572 K/O and 1571 K/O and 1050 K/O and 1405 K/O | RBC (Counts (K/O)) (Rag2-/-γc-/- mice; 7d Washout): 9.8 K/O and 10.2 K/O and 8.86 K/O and 10.25 K/O | WBC (Counts (K/O)) (Rag2-/-γc-/- mice; 7d Washout): 1.4 K/O and 1.52 K/O and 3.74 K/O and 2.44 K/O | Hematocrit (Counts (%)) (Rag2-/-γc-/- mice; Week 1): 48.1% and 47% and 47.7% and 46.6% | Hemoglobin (Counts (g/dl)) (Rag2-/-γc-/- mice; Week 1): 17.8 g/dL and 17.5 g/dL and 18 g/dL and 17.7 g/dL | PLT (Counts (K/O)) (Rag2-/-γc-/- mice; Week 1): 866 K/O and 806 K/O and 880 K/O and 983 K/O | RBC (Counts (K/O)) (Rag2-/-γc-/- mice; Week 1): 9.36 K/O and 9.79 K/O and 10.18 K/O (2×) | WBC (Counts (K/O)) (Rag2-/-γc-/- mice; Week 1): 1.68 K/O and 1.52 K/O and 1.6 K/O and 1.16 K/O | Hematocrit (Counts (%)) (Rag2-/-γc-/- mice; Week 2): 51.3% and 48.5% and 45.7% and 50.4% | Hemoglobin (Counts (g/dl)) (Rag2-/-γc-/- mice; Week 2): 18.2 g/dL and 18 g/dL and 17.2 g/dL and 17.7 g/dL | PLT (Counts (K/O)) (Rag2-/-γc-/- mice; Week 2): 1496 K/O and 1628 K/O and 1531 K/O and 1908 K/O | RBC (Counts (K/O)) (Rag2-/-γc-/- mice; Week 2): 10.07 K/O and 9.97 K/O and 9.38 K/O and 10.01 K/O | WBC (Counts (K/O)) (Rag2-/-γc-/- mice; Week 2): 10.02 K/O and 4.3 K/O and 5.26 K/O and 5.18 K/O | Hematocrit (Counts (%)) (Rag2-/-γc-/- mice; Week 3): 47.2% and 36.5% and 46.9% and 44.2% | Hemoglobin (Counts (g/dl)) (Rag2-/-γc-/- mice; Week 3): 17.4 g/dL and 13.4 g/dL and 17.3 g/dL and 16.8 g/dL | PLT (Counts (K/O)) (Rag2-/-γc-/- mice; Week 3): 870 K/O and 786 K/O and 1040 K/O and 1436 K/O | RBC (Counts (K/O)) (Rag2-/-γc-/- mice; Week 3): 9.53 K/O and 7.63 K/O and 9.68 K/O and 9.71 K/O | WBC (Counts (K/O)) (Rag2-/-γc-/- mice; Week 3): 3.3 K/O and 2.28 K/O and 4.16 K/O and 1.16 K/O | IC50 (HDAC2): 31 nM | inhibition at 10 µM (HDAC2; 10 µM, source data of Fig. 1B): 90%

Cc1[nH]c2ccccc2c1CCNCc1ccc(/C=C/C(=O)NO)cc1 [Panobinostat, reference compound]
BRD4 CUT&RUN peaks (HL-60): 16030 | H3K9Ac CUT&RUN peaks (HL-60): 32775 | H3K27Ac CUT&RUN peaks (HL-60): 26959
